Results from article PMC8952190, “Bromodomain and Extra-Terminal Inhibitor BMS-986158 Reverses Latent HIV-1 Infection In Vitro and Ex Vivo by Increasing CDK9 Phosphorylation and Recruitment” (Pharmaceuticals, 2022).
pIC50: −log10 of the molar value.

Legend:
BRD4 = BRD4 (Homo sapiens, UniProt O60885); test: HTRF binding assay (cell-free, protein and peptide)
BRD2 = molecular target: T1, BRD2 (Homo sapiens, UniProt P25440); test: as above
T1 construct: BRD2(1,2)
T1 sequence (P25440 whole entry): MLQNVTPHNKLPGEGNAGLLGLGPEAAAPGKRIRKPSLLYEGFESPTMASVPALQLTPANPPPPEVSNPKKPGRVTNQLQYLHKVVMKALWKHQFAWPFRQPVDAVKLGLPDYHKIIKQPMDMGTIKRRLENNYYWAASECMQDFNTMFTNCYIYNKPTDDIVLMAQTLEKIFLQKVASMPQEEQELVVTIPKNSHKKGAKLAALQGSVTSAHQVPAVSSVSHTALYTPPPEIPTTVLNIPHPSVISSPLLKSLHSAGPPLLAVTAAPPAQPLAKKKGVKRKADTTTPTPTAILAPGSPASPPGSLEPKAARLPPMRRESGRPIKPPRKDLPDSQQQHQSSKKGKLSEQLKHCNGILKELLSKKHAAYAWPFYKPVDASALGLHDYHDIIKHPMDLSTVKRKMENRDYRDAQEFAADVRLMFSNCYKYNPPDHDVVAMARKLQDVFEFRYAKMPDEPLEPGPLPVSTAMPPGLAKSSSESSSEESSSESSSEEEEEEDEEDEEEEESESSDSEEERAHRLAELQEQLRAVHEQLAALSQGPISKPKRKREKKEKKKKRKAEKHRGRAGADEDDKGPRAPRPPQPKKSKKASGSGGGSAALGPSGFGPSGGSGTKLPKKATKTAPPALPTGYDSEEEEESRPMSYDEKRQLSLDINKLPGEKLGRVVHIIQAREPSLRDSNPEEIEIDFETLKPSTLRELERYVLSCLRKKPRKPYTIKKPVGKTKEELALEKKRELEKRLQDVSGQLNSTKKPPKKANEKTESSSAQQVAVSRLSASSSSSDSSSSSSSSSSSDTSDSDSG

pIC50 (BRD4): 8.56 | pIC50 (BRD2): 8.93
SMILES: Cc1nnn(C)c1-c1cnc2c3ccc(C(C)(C)O)cc3n([C@H](c3ccccc3)C3CCOCC3)c2c1 [BMS-986158]
